Test results reported in PMC10607708 (Journal of natural products, 2021).
Read-outs that look alike come from different tables or passages of the source. Each block holds one molecule with its values, some of them ahead of it.

Experiments:
PGE2 = PGE2 assay in LPS-stimulated SCC-9 cells; assay type: cell-based; conditions: LC-MS/MS
[1] = assay type: in vivo, C57BL/6 mice; conditions: for bioavailability: C57BL/6, mouse, whole blood, ip, 500 mg/kg; for AUC0-t /Dose / Cmax/Dose: blood
[2] = Saliva levels after intraperitoneal administration of ATB; assay type: in vivo, C57BL/6 mice; conditions: for detection in mouse saliva: i.p. 500 mg/kg ATB q.d., 7 consecutive days
Cal-27 = assay: MTT anti-proliferation assay in Cal-27 cells; assay type: cell-based; conditions: in words
[3] = Pharmacokinetics after i.v. administration of ATB, blood; assay type: in vivo, C57BL/6 mice; conditions: 500 mg/kg ATB IV, matrine dosage 2.79 mg/kg
[4] = Pharmacokinetics after oral administration of ATB or pure KACs, blood; assay type: in vivo, C57BL/6 mice; conditions: for AUC0-t /Dose / Cmax/Dose: blood
Stability in saliva = assay type: in vitro ADME
[5] = system: salivary gland adenoid cystic carcinoma cells (ACC-M); conditions: in vitro; cited from earlier work
[6] = 5 mg/kg KAC Oral (pure compound), matrine dosage 5.00 mg/kg
[7] = 100 mg/kg ATB Oral, matrine dosage 0.56 mg/kg
[8] = 500 mg/kg ATB Oral, matrine dosage 2.79 mg/kg
[9] = 4000 mg/kg ATB Oral, matrine dosage 22.32 mg/kg
[10] = 500 mg/kg ATB IP Day 1, matrine dosage 2.79 mg/kg
[11] = 500 mg/kg ATB IP Day 7, matrine dosage 2.79 mg/kg
[12] = saliva, 500 mg/kg ATB IP Day 7, matrine dosage 2.79 mg/kg

bioavailability [1]: 2.8 ± 2.1% | detection in mouse saliva [2]: no Frax or Maac detected
SMILES: CC1=C2C(=O)O[C@@H](c3ccoc3)[C@]2(C)CCC1 [Fraxinellone, fraxinellone]
inhibition of PGE2 production (PGE2; 25 μM): significant inhibition

bioavailability [1]: 4.8 ± 4.2% | detection in mouse saliva [2]: no Frax or Maac detected
SMILES: Oc1ccc2c(c1)OCC1c3cc4c(cc3OC21)OCO4 (stereo not shown) [Maackiain, maackiain]

SMILES: O=C1CCC[C@@H]2[C@H]3CCCN4CCC[C@@H](CN12)[C@@H]34 [Matrine, matrine]
inhibition effect against Cal-27 cells (Cal-27): moderate inhibition effect | inhibition of PGE2 production (PGE2; 50 μM): significant inhibition | AUC0-t /Dose [3]: 1830.0 ± 1241.2 (hr*ng/mL)/(mg/kg) | Cmax/Dose [3]: 1408.3 ± 835.8 (ng/mL)/(mg/kg) | AUC0-t /Dose [4, 6]: 46.9 ± 13.0 (hr*ng/mL)/(mg/kg) | Cmax/Dose [4, 6]: 22.0 ± 7.4 (ng/mL)/(mg/kg) | AUC0-t /Dose [4, 7]: 58.5 ± 32.7 (hr*ng/mL)/(mg/kg) | Cmax/Dose [4, 7]: 25.9 ± 20.5 (ng/mL)/(mg/kg) | AUC0-t /Dose [4, 8]: 43.1 ± 21.3 (hr*ng/mL)/(mg/kg) | Cmax/Dose [4, 8]: 19.3 ± 10.2 (ng/mL)/(mg/kg) | AUC0-t /Dose [4, 9]: 164.1 ± 60.0 (hr*ng/mL)/(mg/kg) | Cmax/Dose [4, 9]: 31.8 ± 10.6 (ng/mL)/(mg/kg) | increase of dose-normalized AUC ([4]; oral ATB, from 500 mg/kg to 4000 mg/kg): ~ 400% | bioavailability [1]: 28.9 ± 11% | AUC0-t /Dose [1, 10]: 528.7 ± 200.9 (hr*ng/mL)/(mg/kg) | Cmax/Dose [1, 10]: 292.4 ± 147.8 (ng/mL)/(mg/kg) | AUC0-t /Dose [1, 11]: 592.0 ± 434.7 (hr*ng/mL)/(mg/kg) | Cmax/Dose [1, 11]: 197.8 ± 144.1 (ng/mL)/(mg/kg) | accumulation in the body after multiple-dose administration ([1]; in words, Fig 5): no accumulation | AUC(0-t) ([2]; C57BL/6, mouse, saliva, ip, 500 mg/kg): 2680 ± 1660 ng·h/mL | detection in mouse saliva [2]: detected | AUC0-t /Dose [2, 12]: 952.8 ± 594.4 (hr*ng/mL)/(mg/kg) | Cmax/Dose [2, 12]: 1533.9 ± 823.5 (ng/mL)/(mg/kg) | stability in saliva (Stability in saliva; room temperature): 4 h | stability in saliva (Stability in saliva; −20 °C): 170 h | effect on adhesion and invasion properties of ACC-M cells [5]: inhibit
